Reference: US8173673B2, “Biofilm-inhibiting effect and anti-infective activity of N,C-linked aryl isoquinolines and the use thereof” (Julius-Maximilians-Universitaet Wuerzburg, priority 2006, dated 2012)
pIC50: −log10 of the molar value. Read-outs that look alike come from different tables or passages of the source.

Legend:
Format in all cases: cell-based
[1] = tested on: Leishmania major-promastigotes (MHOM/IL81/FE/BNI); assay: Alamar Blue activity test against Leishmania major promastigotes
Description: Leishmania major-promastigotes (MHOM/IL81/FE/BNI) were cultivated in blood agar-cultures at 26° C., 5% CO2, and 95% humidity. For the experiment, the promastigotes were washed twice with saline phosphate buffer (PBS) and subsequently suspended (10^8 cells/ml) in Click-RPMI-1640-medium without phenol red, spiked with 10% FCS, 2 mM L-glutamine, 1.0 mM HEPES-buffer, pH 7.2, 100 μg/ml penicillin, […] gentamycin, 7.5% NaHCO3 and 50 μM 2-mercaptoethanol (culture medium). For the determination of activity, 200 μl of the promastigote-suspension in microtiter plates were each incubated with the compounds in a geometric series of dilutions for 24 hours at 26° C., 5% CO2, and 95% humidity. Subsequently, 20 μl Alamar Blue (Trinova Biochem, Gieβen, Germany) were added to each of the microcultures, and the cultures were incubated further. Cultures that only contained medium and the compound, or only cellular suspension (without compound), served as controls. The optical density was measured after another 24 hours with an ELISA-reader at the wave lengths 550 nm and 630 nm. The IC50-values of the compounds were calculated through linear interpolation (J. Mikes, D. Steverding. Parasitol. Int. 2000, 48, 265-269).
Macrophages of the cell line J774.1 were washed and suspended in culture medium ([…]. For the test, 200 μl of the cell suspension and the compounds were pipetted in a geometric series of dilutions into cultures on microtiter plates. Following 24 hours of incubation at 37° C., 5% CO2, and 95% humidity, 20 μl Alamar Blue were added to each micro-culture, and the microtiter plate was incubated further. Micro-cultures with medium and the compound as well as micro-cultures that only contained cellular suspension (without compound), served as controls. The optical density was measured after 24, 48, and 72 hours with an ELISA-reader at the wavelengths 550 nm and 630 nm. The IC50-values of the compounds were calculated using linear interpolation. Amphotericin B served as a reference compound and positive control. […]

[2] = tested on: Trypanosoma brucei brucei strain TC-221; assay: Alamar Blue anti-trypanosome test, bloodstream forms
Description: Bloodstream-forms of the strain TC-221 of Trypanosoma brucei brucei were cultivated in enriched Baltz-culture medium in an atmosphere von 5% CO2 at 37° C. For activity determinations, a defined number of pathogens (10^4 trypanosomes per ml) were incubated in 96-well-plates with the compounds in different concentrations for 48 to 72 hours. The effect of the drugs was quantifiable using the ED50-values with linear interpolation. The trypanocidal activity of the test compounds was determined through measuring absorption on an MR 700 microplate reader (test wavelength 550 nm, reference wavelength 630 nm) by means of Alamar Blue®, an indicator of metabolic cellular functions. The addition of the dye took place 24 hours after starting the incubation. The color change of Alamar Blue® as used in this absorption measurements is based on reduction processes involving NADH or NADH-dependent enzymes. Incubation times and the concentrations of dye as required correlate with the metabolic activities of the trypanosomes. The MIC-value (minimum inhibitory concentration) was determined microscopically through counting of living cells in Neubauer-counting chambers. Suramine Na served both as positive control and reference.
The anti-trypanosomal activities of the compounds of the general structures 1-3 were studied based on a series of examples according to the above-described methods. The therapeutic index is the ratio of the cytoxicity (J774.1 macrophages) to the activities against Trypanosoma brucei brucei.

[3] = tested on: Plasmodium falciparum strain K1; assay: [3H]-hypoxanthine-inclusion-test, anti-plasmodium activity
Text: For the determination of the anti-plasmodium activities, cultures of Plasmodium falciparum strain K1 (resistant against chloroquine and pyrimethamine) were used. A modification (R. G. Ridley, W. Hofheinz, if Matile, C. Jacquet, A. Dorn, R. Masciadri, S. Jolidon, W. F. Richter, A. Guenzi, M. A. Girometta, H. Urwyler, W. Huber, S. Thaitong, W. Peters, Antimicrob. Agents Chemother. 1996, 40, 1846-1854) of the [^3H]-hypoxanthine-inclusion-test (R. E. Desjardins, C. J. Canfield, D. Haynes, J. Chulay, Antimicrob. Agents Chemother. 1979, 16, 710-718) was used. Human red blood cells infected with P. falciparum (0.3% infection) at a hematocrit of 2.5% (volume fraction of the red blood cells) in RPMI 1640 medium with the serum replacement Albumax II (5 g/L) were incubated with serial dilutions of the drugs in microtiter plates for 48 hours at 37° C. under a CO2-enriched and O2-reduced atmosphere. Then, 0.5 μCi [^3H]-hypoxanthine were added to each well of the microtiter plate, and after a further 24 hours of incubation time the wells were harvested with a Betaplate Cell Harvester onto glass fiber filters, and lysed with distilled water. The incorporation of radio-labeled hypoxanthine (which correlates with the quantity of living parasites) was determined using a scintillation counter. The IC50 value was determined from sigmoidal inhibition curves. The tests were performed in duplicate, and repeated at least once. Parasite cultures without additive served as control (100% incorporation), cultures with a dilution series of chloroquine served as positive control.
(§1) The anti-plasmodia activities of the compounds of the general structures 1-3 were studied based on a series of examples according to the above-described methods. The therapeutic index is the ratio of the IC50 values for rat myoblasts (L-6-cells=cytotoxicity) to the IC50 values for Plasmodium falciparum.

[4] = tested on: rat myoblasts (L-6-cells); assay: Cytotoxicity on rat myoblasts (L-6-cells); conditions: result in words
Text: as §1

[5] = Trypanosoma brucei, T. brucei brucei TC-221, after 48 h, read-out: ED50 (μM) after 48 h
[6] = Trypanosoma brucei, T. brucei brucei TC-221, after 72 h, read-out: ED50 (μM) after 72 h
[7] = P. falciparum strain K1 (resistant against chloroquine and pyrimethamine), read-out: IC50

For `C[C@@H]1[C@H](O)[C@@H](C)/C=C/C=C/C=C/C=C/C=C/C=C/C=C/[C@H](O[C@@H]2O[C@H](C)[C@@H](O)[C@H](N)[C@@H]2O)C[C@@H]2O[C@](O)(C[C@@H](O)C[C@@H](O)[C@H](O)CC[C@@H](O)C[C@@H](O)CC(=O)O[C@H]1C)C[C@H](O)[C@H]2C(=O)O` [Amphotericin B, reference compound], the pIC50 [1] was 5.60.
With `COc1cc(OC)c2c(C)[n+](-c3ccc(C)cc3)c(C)cc2c1` [B] the pIC50 [1] was 5.61.
With `COc1cc2c(c(OC)c1)C(C)=[N+](c1cccc3ccccc13)[C@@H](C)C2` [Compound 2a, (3S)—N,1′-naphthyl-6,8-dimethoxy-1,3-dimethyl-3,4-dihydroisoquinolinium-trifluoro-acetate] the EC50 [2, 5] was 0.39 µM and the EC50 [2, 6] was 0.356 µM.
Molecule `COc1cc(OC)c2c(C)[n+](-c3ccc(C(C)C)cc3)c(C)cc2c1` [D] has a pIC50 [1] of 6.07.
`COc1cc(OC)c2c(C)[n+](-c3ccccc3OC)c(C)cc2c1` [E] gave an EC50 [2, 5] of 0.383 µM and an EC50 [2, 6] of 0.323 µM.
Molecule `COc1ccc(-[n+]2c(C)cc3cc(OC)cc(OC)c3c2C)c(OC)c1` [F] has an EC50 [2, 5] of 0.325 µM and an EC50 [2, 6] of 0.311 µM.
Molecule `COc1cc(OC)c2c(C)[n+](-c3ccc(Cl)cc3)c(C)cc2c1` [G] has a pIC50 [3, 7] of 7.25.
`COc1cc(OC)c2c(C)[n+](-c3ccc(C(F)(F)F)cc3)c(C)cc2c1` [H] gave a pIC50 [3, 7] of 6.55.
`COc1cc(OC)c2c(C)[n+](-c3ccc(NC(C)=O)cc3)c(C)cc2c1` [I] was tested, and the cytotoxicity [4] was “without a detectable cytotoxicity” and the pIC50 [3, 7] was 6.68.
In the case of `Cc1ccc(C(=O)Nc2ccc(S(=O)(=O)O)c3cc(S(=O)(=O)O)cc(S(=O)(=O)O)c23)cc1NC(=O)c1cccc(NC(=O)Nc2cccc(C(=O)Nc3cc(C(=O)Nc4ccc(S(=O)(=O)O)c5cc(S(=O)(=O)O)cc(S(=O)(=O)O)c45)ccc3C)c2)c1` [Suramin Na, reference compound], the EC50 ([2]; T. brucei brucei TC-221, after 48 h, read-out: ED50 (μM) after 48 h) was 0.31 µM and the EC50 ([2]; T. brucei brucei TC-221, after 72 h, read-out: ED50 (μM) after 72 h) was 0.32 µM.
`CCN(CC)CCCC(C)Nc1ccnc2cc(Cl)ccc12` (stereo not shown) [chloroquine, reference compound] showed a pIC50 ([3]; K1) of 6.92.
